According to US20080287537A1, “Composition, Particularly a Cosmetic Composition, Comprising ((Dialkylamino)Alkoxy) Ethanol Ester” (L'OREAL, priority 2004, published 2008):

Legend:
[1] = system: SKNSH nerve cells; test: Inhibition of calcium flux (IC50Ca2+) on SKNSH nerve cells; format: cell-based; details: Homo sapiens, SK-N-SH, concentration which inhibits release of Ca2+ by 50%
Source text: (§1) In order for a substance to be recognized as a calcium-channel inhibitor, it must be able to reduce the intracellular calcium concentration or reduce the binding of calcium to intracellular proteins, such as, for example, calmodulin, such as is described in particular by Galizzi, J. P. et al., J. Biol. Chem., 1987, 262 p. 6947; by Y. Okamiya et al., Eur. J. Pharmacol., 1991, 205, p. 49; by J. A. Wagner et al., J. Neurosci., 1988, 8, p. 3354; by H. R. Lee et al., Life Sci., 1984, 35, p. 721; by Schoemaker H. and Lauger S., Eur. J. Pharmacol., 1985, 111, p. 273 or by I. J. Reynolds et al., J. Pharmacol. Exp. Ther., 1986, 237, p. 731.
(§2) The Applicant determined the IC50Ca2+ for inhibition of calcium flux of three compounds according to the invention using the protocol shown in these documents. IC50Ca2+ represents the concentration which inhibits release of Ca^2+ by 50%.

[2] = system: cells resulting from HFDa skin fibroblasts; test: Inhibition of calcium flux (IC50Ca2+) on cells from HFDa skin fibroblasts; format: cell-based; details: Skin fibroblast, concentration which inhibits release of Ca2+ by 50%
Source text: as §1, §2

[3] = system: Ca2+ channel (L, verapamil site); test: Competitive inhibition of [3H]-(-)-D888 binding to L-type calcium channels, rat cerebral cortex homogenates; details: 1 μM in DMSO; [3H]-(-)-D888 0.5 nM; 60 min/22° C.
Source text: The experimental conditions are as follows:
D888, which is [^3H]-(−)-desmethoxyverapamil, acts as radiolabelled specific ligand and D600, which is (±)-methoxyverapamil hydrochloride, acts as reference molecule.
The specific binding of a ligand (labelled D888) to the receptors (L-type calcium channels, verapamil site) is defined as the difference between the total binding and the non-specific binding determined in the presence of an excess of cold (nonradioactive) ligand. The results are expressed as percentage of inhibition of the specific binding of the control in the presence of the compound tested.

[4] = system: human striated muscle cells innervated with explants of rat embryo spinal ganglia and spinal cord; test: Nerve/muscle coculture model, contractions of muscle fibres; format: cell-based; details: earlier demonstration by the Applicant Company, concentration not given
Protocol: The mixture of compounds of Example 2 was tested on a model of nerve/muscle coculture which makes it possible to recreate a motor arc by innervating human striated muscle cells with explants of rat embryo spinal ganglia and spinal cord.
Human muscle cells, resulting from samples of striated muscles from a healthy donor, are inoculated in wells with a cross section of 1.8 cm^2 (24-well culture dishes). After culturing for 10 days, these cells form a monolayer and fuse. At this stage, spinal cord explants from rat embryos aged 13 days comprising the spinal ganglia are deposited on the culture.
The growth of the neurites is visible outside the spinal cord explant after culturing for one day. The first contractions of the muscle fibres are observed after coculturing for 5 to 6 days and, after 3 weeks, all the muscle fibres in the vicinity of the explants are contracting.
The cocultures are used after 21 days, when the muscle fibres are striated and have mature differentiated neuromuscular junctions.
A muscle fibre having regular contractions (at least 60 contractions per minute) is then selected from three different culture wells and the number of contractions is counted over 30 seconds. […] At the end of incubation, the number of contractions is again counted over 30 seconds. […]

[5] = Antiwrinkle activity in vivo; details: earlier demonstration, no details

Compound | IC50 [1] [µM] | IC50 [2] [µM] | percentage of inhibition of the specific binding of the control [3] [%] | contractions of the muscle fibres [4] | antiwrinkle activity [5]
CCCCCCCCCC(=O)OCCOCCN(CC)CC [((Diethylamino)ethoxy)ethyl decanoate] | 26 |  |  |  | 
CCCCCCCCCCCC(=O)OCCOCCN(CC)CC [((Diethylamino)ethoxy)ethyl laurate, ((diethylamino)ethoxy)ethyl laurate] | 11 | 13 | 31 |  | 
CCCCCCCCCCCCCCCC(=O)OCCOCCN(CC)CC [((Diethylamino)ethoxy)ethyl palmitate] | 24 | 14 |  |  | 
CCCCCCCCCCCCCCCCCC(=O)OCCOCCN(CC)CC [((Diethylamino)ethoxy)ethyl stearate] | 37 |  |  |  | 
CN1C(=O)CN=C(c2ccccc2)c2cc(Cl)ccc21 [diazepam] |  |  |  | inhibited the contractions of the muscle fibres | demonstrated in vivo
